The results in this text go back to US11000033B2, “Ketone or oxime compound, and herbicide” (NISSAN CHEMICAL CORPORATION, priority 2014, dated 2021).

Format in all cases: in vivo
Series [1] concerns Scirpus juncoides. The experiment in a line: Test Example 2: herbicidal activity, application during weed generation in submerged conditions (symbol B). Conditions: Table 23; application herbicide amount 320 g/ha; grade 0-5 by criteria of Test Example 1. An outline of the steps: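 Submerged alluvial soil (4 cm) sown with mixed seed; greenhouse 25–30° C. 1–2 leaf: diluted emulsion onto water surface, preset dose. Visual score, 3 wk.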

For series [2], the system named is Echinochloa crus-galli var. crus-galli. The experiment in a line: Test Example 3: herbicidal effect by foliage application, Wagner pot (symbol H). The note with it: application herbicide amount 320 g/ha. An outline of the steps: (§1)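 Steps: fill pot with alluvial soil; add water to 0.1–0.5 cm depth; sow weed and rice seed; grow 14 days at 25–30 °C; spray diluted emulsion over the leaves; rate effect after 3 weeks.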

The subject of series [3] is Cyperus difformis. In words: Test Example 3: herbicidal effect by foliage application, Wagner pot (symbol E). The note with it: application herbicide amount 320 g/ha. In a few lines:
as §1

For series [4], the system named is Echinochloa crus-galli var. crus-galli. In words: Test Example 4: herbicidal effect by soil treatment (symbol H). Conditions: application herbicide amount 320 g/ha. An outline of the steps:
(§2)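 Seeds were sown in sterilized diluvial soil, covered with about 1.5 cm of soil, and the soil surface was sprayed with a water-diluted emulsion of the compound at a predetermined rate. Plants grew in a greenhouse at 25° C. to 30° C.; effects were scored visually 3 weeks after application.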

Series [5] has as its system Lolium multiflorum Lam. In words: Test Example 4: herbicidal effect by soil treatment (symbol K). Conditions: application herbicide amount 320 g/ha. An outline of the steps: as §2
Series [6] has as its system Apera spica-venti. The experiment in a line: Test Example 4: herbicidal effect by soil treatment (symbol L). The note with it: application herbicide amount 320 g/ha. An outline of the steps: as §2
Series [7] has as its system Galium spurium. In words: Test Example 4: herbicidal effect by soil treatment (symbol Q). The note with it: application herbicide amount 320 g/ha. An outline of the steps: as §2
In series [8] the test system is corn. In words: Test Example 4: effect on crop by soil treatment (symbol c). The note with it: application herbicide amount 320 g/ha. In a few lines: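 Crop seed is sown in spots together with several weed species in a box of sterilized diluvial soil. It is covered by about 1.5 cm of soil and kept in a greenhouse held between 25° C. and 30° C.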
Series [9] deals with rice. In words: Test Example 4: effect on crop by soil treatment (symbol b). The note with it: application herbicide amount 320 g/ha. In a few lines: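 Soil-treatment setup: crop and weed seeds were spot-sown into sterilized diluvial soil, then buried beneath approximately 1.5 cm of it, and the boxes were housed in a 25–30° C. greenhouse.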
For series [10], the system named is Setaria viridis. In words: Test Example 5: herbicidal effect by foliage application, plastic box (symbol G). The note with it: 320 g/ha, 3 weeks after application. In a few lines: (§3)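 Emulsion formulation, diluted with water to the intended rate, was applied uniformly to leaves by small sprayer. Recipients were 14-day greenhouse-grown seedlings (25° C. to 30° C.). Assessment followed at 3 weeks.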

Series [11] deals with Avena fatua. In words: Test Example 5: herbicidal effect by foliage application, plastic box (symbol I). Conditions: 320 g/ha, 3 weeks after application. An outline of the steps:
as §3

Series [12] concerns Alopecurus myosuroides. The experiment in a line: Test Example 5: herbicidal effect by foliage application, plastic box (symbol J). Conditions: 320 g/ha, 3 weeks after application. In a few lines: as §3
The subject of series [13] is Lolium multiflorum Lam. In words: Test Example 5: herbicidal effect by foliage application, plastic box (symbol K). The note with it: 320 g/ha, 3 weeks after application. An outline of the steps:
as §3

The subject of series [14] is Stellaria media. In words: Test Example 5: herbicidal effect by foliage application, plastic box (symbol P). The note with it: 320 g/ha, 3 weeks after application. In a few lines: as §3
For series [15], the system named is Veronica persica. In words: Test Example 5: herbicidal effect by foliage application, plastic box (symbol R). Conditions: 320 g/ha, 3 weeks after application. In a few lines: as §3
The subject of series [16] is rice plant. The experiment in a line: Test Example 5: effect on crop by foliage application, plastic box (symbol b). The note with it: 320 g/ha, 3 weeks after application. In a few lines: (§4)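 In a plastic box 7 cm deep filled with sterilized diluvial soil, seeds of crops and weeds such as Digitaria ciliaris, Avena fatua and Amaranthus retroflexus are sown in spots and covered with about 1.5 cm of soil before greenhouse growth at 25–30° C.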

For series [17], the system named is wheat. In words: Test Example 5: effect on crop by foliage application, plastic box (symbol e). Conditions: 320 g/ha, 3 weeks after application. An outline of the steps:
as §4

Turning to `CON=C(C)CC1CC(O)=C(c2c(C)cc(-c3ccc(C(F)(F)F)cc3)cc2C)C1=O` (mixture of isomers) [6-016], the “Herbicidal effect grade, B: Scirpus juncoides” value (from here on “Herbicidal effect grade, B”) in [1] is 0 (Herbicidal ratio of 5% or lower (almost no effect)). Moreover, the “herbicidal effect on H (Echinochloa crus-galli var. crus-galli), grade 0-5” value (“herbicidal effect on H” for short) in [2] is on record as 5 (Herbicidal ratio of 90% or more (almost completely withered)). Moreover, the “herbicidal effect on E, grade 0-5” value in series [3] was 1 (Herbicidal ratio of 5% or higher and lower than 20%). Besides, the “H: Echinochloa crus-galli var. crus-galli, herbicidal effect grade” value in series [4] was 4 (Herbicidal ratio of 70% or higher and lower than 90%). Moreover, the “K: Lolium multiflorum Lam., herbicidal effect grade” value in series [5] is 0 (Herbicidal ratio of 5% or lower (almost no effect)); in [13] it was 5 (Herbicidal ratio of 90% or more (almost completely withered)). The “L: Apera spica-venti, herbicidal effect grade” value (from here on “L: Apera spica-venti”) in series [6] was 5 (Herbicidal ratio of 90% or more (almost completely withered)). The “Q: Galium spurium, herbicidal effect grade” value (shortened to “Q: Galium spurium”) in series [7] is given as 0 (Herbicidal ratio of 5% or lower (almost no effect)). Also, in series [8], the “c: corn, effect on crop grade” value is listed as 0 (Herbicidal ratio of 5% or lower (almost no effect)). The “b: directly sowed rice plant, effect on crop grade” value (“b: directly sowed rice plant” for short) in series [9] is 2 (Herbicidal ratio of 20% or higher and lower than 40%); in series [16], 5 (Herbicidal ratio of 90% or more (almost completely withered)). In addition, in series [10], the “G: Setaria viridis, herbicidal effect grade” value (from here on “G: Setaria viridis”) was 5 (Herbicidal ratio of 90% or more (almost completely withered)). Also, the “I: Avena fatua, herbicidal effect grade” value in series [11] is 4 (Herbicidal ratio of 70% or higher and lower than 90%). Moreover, the “J: Alopecurus myosuroides, herbicidal effect grade” value (shortened to “J: Alopecurus myosuroides”) in series [12] is 1 (Herbicidal ratio of 5% or higher and lower than 20%). Further, the “P: Stellaria media, herbicidal effect grade” value in series [14] is reported as 0 (Herbicidal ratio of 5% or lower (almost no effect)). In addition, the “R: Veronica persica, herbicidal effect grade” value (shortened to “R: Veronica persica”) in [15] was 3 (Herbicidal ratio of 40% or higher and lower than 70%). Further, the “e: wheat, effect on crop grade” value in series [17] is 0 (Herbicidal ratio of 5% or lower (almost no effect)).
Consider `CCC(C)C(=O)CC1CC(O)=C(c2c(C)cc(C)cc2C)C1=O` (stereo not drawn) [2-024], for which, in series [1], the “Herbicidal effect grade, B” value was 0 (Herbicidal ratio of 5% or lower (almost no effect)). The “herbicidal effect on H” value in [2] is 5 (Herbicidal ratio of 90% or more (almost completely withered)). In [3], the “herbicidal effect on E, grade 0-5” value is 0 (Herbicidal ratio of 5% or lower (almost no effect)). Besides, the “H: Echinochloa crus-galli var. crus-galli, herbicidal effect grade” value in series [4] was 4 (Herbicidal ratio of 70% or higher and lower than 90%). In addition, the “K: Lolium multiflorum Lam., herbicidal effect grade” value was 0 (Herbicidal ratio of 5% or lower (almost no effect)) in series [5] and 5 (Herbicidal ratio of 90% or more (almost completely withered)) in [13]. The “L: Apera spica-venti” value in series [6] was 0 (Herbicidal ratio of 5% or lower (almost no effect)). In addition, in [7], the “Q: Galium spurium” value is 0 (Herbicidal ratio of 5% or lower (almost no effect)). Besides, the “c: corn, effect on crop grade” value in series [8] was 0 (Herbicidal ratio of 5% or lower (almost no effect)). Besides, the “b: directly sowed rice plant” value in series [9] and in [16] was 5 (Herbicidal ratio of 90% or more (almost completely withered)) each time. Besides, the “G: Setaria viridis” value in series [10] is recorded as 5 (Herbicidal ratio of 90% or more (almost completely withered)). Besides, the “I: Avena fatua, herbicidal effect grade” value in series [11] was 2 (Herbicidal ratio of 20% or higher and lower than 40%). In series [12], the “J: Alopecurus myosuroides” value was 4 (Herbicidal ratio of 70% or higher and lower than 90%). Further, the “P: Stellaria media, herbicidal effect grade” value in series [14] is reported as 0 (Herbicidal ratio of 5% or lower (almost no effect)). For the same compound, the “R: Veronica persica” value in series [15] was 2 (Herbicidal ratio of 20% or higher and lower than 40%). The “e: wheat, effect on crop grade” value in [17] is 0 (Herbicidal ratio of 5% or lower (almost no effect)).
`CCc1cc(Br)cc(C)c1C1=C(O)CC(CC(C)=NOC)C1=O` (stereo not drawn) [6-001]: the “Herbicidal effect grade, B” value in [1] was 0 (Herbicidal ratio of 5% or lower (almost no effect)). Besides, the “herbicidal effect on H” value in series [2] is recorded as 5 (Herbicidal ratio of 90% or more (almost completely withered)). Moreover, the “herbicidal effect on E, grade 0-5” value in series [3] is recorded as 0 (Herbicidal ratio of 5% or lower (almost no effect)). In [4], the “H: Echinochloa crus-galli var. crus-galli, herbicidal effect grade” value was 5 (Herbicidal ratio of 90% or more (almost completely withered)). For the same compound, the “K: Lolium multiflorum Lam., herbicidal effect grade” value in series [5] and in [13] was 5 (Herbicidal ratio of 90% or more (almost completely withered)) in each case. The “L: Apera spica-venti” value in series [6] is recorded as 5 (Herbicidal ratio of 90% or more (almost completely withered)). The “Q: Galium spurium” value in [7] was 0 (Herbicidal ratio of 5% or lower (almost no effect)). The “c: corn, effect on crop grade” value in [8] was 5 (Herbicidal ratio of 90% or more (almost completely withered)). Also, the “b: directly sowed rice plant” value in series [9] and in [16] was 5 (Herbicidal ratio of 90% or more (almost completely withered)) in each case. The “G: Setaria viridis” value in series [10] is listed as 5 (Herbicidal ratio of 90% or more (almost completely withered)). Further, in series [11], the “I: Avena fatua, herbicidal effect grade” value is 5 (Herbicidal ratio of 90% or more (almost completely withered)). Moreover, in series [12], the “J: Alopecurus myosuroides” value is 5 (Herbicidal ratio of 90% or more (almost completely withered)). Further, the “R: Veronica persica” value in series [15] is on record as 0 (Herbicidal ratio of 5% or lower (almost no effect)). Besides, the “e: wheat, effect on crop grade” value in [17] was 5 (Herbicidal ratio of 90% or more (almost completely withered)).
On to `CON=C(C)CC1CC(OCC(=O)OC)=C(c2c(C)cc(C)cc2C)C1=O` (stereo not drawn) [1-012], for which the “Herbicidal effect grade, B” value in series [1] is 0 (Herbicidal ratio of 5% or lower (almost no effect)). Besides, the “herbicidal effect on H” value in series [2] is recorded as 0 (Herbicidal ratio of 5% or lower (almost no effect)). In series [3], the “herbicidal effect on E, grade 0-5” value is 0 (Herbicidal ratio of 5% or lower (almost no effect)). Further, the “H (Echinochloa crus-galli var. crus-galli) herbicidal effect grade” value in series [4] is 0 (Herbicidal ratio of 5% or lower (almost no effect)). The “K (Lolium multiflorum Lam.) herbicidal effect grade” value in [5] is recorded as 0 (Herbicidal ratio of 5% or lower (almost no effect)). The “L (Apera spica-venti) herbicidal effect grade” value in series [6] is 0 (Herbicidal ratio of 5% or lower (almost no effect)). For the same compound, the “Q (Galium spurium) herbicidal effect grade” value in series [7] was 0 (Herbicidal ratio of 5% or lower (almost no effect)). Further, the “c (corn) effect on crop grade” value in series [8] is recorded as 0 (Herbicidal ratio of 5% or lower (almost no effect)). In addition, the “b (directly sowed rice plant) effect on crop grade” value in series [9] is 0 (Herbicidal ratio of 5% or lower (almost no effect)). For the same compound, the “G: Setaria viridis” value in series [10] is listed as 0 (Herbicidal ratio of 5% or lower (almost no effect)). Besides, in series [11], the “I: Avena fatua, herbicidal effect grade” value is 0 (Herbicidal ratio of 5% or lower (almost no effect)). In addition, the “J: Alopecurus myosuroides” value in series [12] was 0 (Herbicidal ratio of 5% or lower (almost no effect)). Besides, the “K: Lolium multiflorum Lam., herbicidal effect grade” value in [13] was 0 (Herbicidal ratio of 5% or lower (almost no effect)). The “R: Veronica persica” value in [15] was 0 (Herbicidal ratio of 5% or lower (almost no effect)). The “b: directly sowed rice plant” value in [16] is on record as 0 (Herbicidal ratio of 5% or lower (almost no effect)). The “e: wheat, effect on crop grade” value in series [17] was 0 (Herbicidal ratio of 5% or lower (almost no effect)).
